Measurements reported in patent US20200071326A1, “TAM KINASE INHIBITORS” (Syros Pharmaceuticals, Inc., priority 2017, published 2020).
Counter-ions that a name gives are not always drawn.

How the values were obtained:
FLT3 = biological target: T1, FLT3 (Homo sapiens, UniProt P36888); assay: IMAP fluorescence polarization kinase assay, FLT3; format: biochemical; conditions: ATP 2.74 μM, enzyme 2.5 nM, 240 minutes, read-out: FLT3 inhibitory constant (Ki)
T1 sequence (P36888 27-993): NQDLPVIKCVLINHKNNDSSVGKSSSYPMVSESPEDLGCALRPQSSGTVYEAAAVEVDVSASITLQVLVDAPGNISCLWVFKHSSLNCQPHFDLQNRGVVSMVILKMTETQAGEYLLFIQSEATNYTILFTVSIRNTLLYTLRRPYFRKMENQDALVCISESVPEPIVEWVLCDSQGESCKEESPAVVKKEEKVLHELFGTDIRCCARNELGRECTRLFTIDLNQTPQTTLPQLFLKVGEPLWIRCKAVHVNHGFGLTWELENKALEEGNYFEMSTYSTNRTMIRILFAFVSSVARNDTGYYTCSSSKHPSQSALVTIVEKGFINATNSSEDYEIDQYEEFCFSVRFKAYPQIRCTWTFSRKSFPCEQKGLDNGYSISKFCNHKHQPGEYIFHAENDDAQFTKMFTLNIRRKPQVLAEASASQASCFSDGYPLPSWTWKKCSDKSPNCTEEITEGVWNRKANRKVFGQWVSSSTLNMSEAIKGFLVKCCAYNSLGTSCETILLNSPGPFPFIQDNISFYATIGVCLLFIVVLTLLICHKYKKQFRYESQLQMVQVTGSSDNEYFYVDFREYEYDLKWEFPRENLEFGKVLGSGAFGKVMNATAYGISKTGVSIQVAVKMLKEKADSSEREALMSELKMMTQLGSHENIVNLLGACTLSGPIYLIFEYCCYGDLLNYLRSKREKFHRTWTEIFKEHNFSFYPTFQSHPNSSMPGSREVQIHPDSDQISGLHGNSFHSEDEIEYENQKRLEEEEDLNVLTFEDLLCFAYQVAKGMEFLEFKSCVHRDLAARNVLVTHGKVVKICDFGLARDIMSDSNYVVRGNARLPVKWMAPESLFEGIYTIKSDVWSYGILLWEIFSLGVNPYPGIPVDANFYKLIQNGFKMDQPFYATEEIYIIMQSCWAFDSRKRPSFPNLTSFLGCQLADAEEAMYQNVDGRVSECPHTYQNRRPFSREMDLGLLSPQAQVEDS
Description: (§1) Activities of compounds against each of TYRO3, AXL, and MERTK as well as against FLT3, were determined using an immobilized metal ion affinity-based fluorescence polarization (“IMAP”) assay. A fluorescently-labeled substrate peptide was phosphorylated in the kinase reaction, after which a binding solution containing large trivalent metal-based nanoparticles was added and the phosphorylated substrate binds to these beads. This reduces the rotational speed of the substrate which is then detected using fluorescence polarization as a read-out.
(§2) The substrates used for each enzyme are as follows: AXL: 5F1-KKKKEEIYFFFG-NH2(SEQ ID NO:1); FLT3: 5F1-KKKKEEIYFFF-NH2 (SEQ ID NO:2); MERTK: 5F1-EFPIYDFLPAKKK-NH2 (SEQ ID NO:3); and TYRO3: 5F1-EFPIYDFLPAKKK-NH2 (SEQ ID NO:4).
(§3) This assay was performed in a 384-well, polystyrene microplate in a final volume of 8 μl. Substrate (final concentration=400 nM), ATP (final concentrations=24.7μM for AXL; 2.74 μM for FLT3; 2.69 μM for MERTK; and 54.0 μM for TYRO3), compounds and enzyme (final concentrations=2.5 nM for AXL, FLT3 and TYRO3; 1.5 nM for MERTK) were pipetted in this order into the appropriate reaction buffer (AXL: 50 mM HEPES, pH 8.0, 1 mM DTT, 10 mM MgCl2, 0.01% BRU35, 0.01% Triton X-100; FLT3: 50 mM HEPES, pH 8.0, 1 mM DTT, 10 mM MgCl2, 0.01% Triton X-100, 0.01% NP40; MERTK/TYRO3: 50 mM HEPES, pH 8.0, 1 mM DTT, 10 mM MgCl2, 0.01% Triton X-100) and incubated at room temperature for varying times (AXL, FLT3 and MERTK: 240 minutes; TYRO3: 60 minutes). IMAP binding solution was then dispensed, the plate incubated for 60 minutes at room temperature and the fluorescence polarization measured. Data were analyzed using XLfit.

MERTK = biological target: T2, MERTK (Homo sapiens, UniProt Q12866); assay: IMAP fluorescence polarization kinase assay, MERTK; format: biochemical; conditions: ATP 2.69 μM, enzyme 1.5 nM, 240 minutes, read-out: MERTK inhibitory constant (Ki)
T2 sequence (Q12866 21-999): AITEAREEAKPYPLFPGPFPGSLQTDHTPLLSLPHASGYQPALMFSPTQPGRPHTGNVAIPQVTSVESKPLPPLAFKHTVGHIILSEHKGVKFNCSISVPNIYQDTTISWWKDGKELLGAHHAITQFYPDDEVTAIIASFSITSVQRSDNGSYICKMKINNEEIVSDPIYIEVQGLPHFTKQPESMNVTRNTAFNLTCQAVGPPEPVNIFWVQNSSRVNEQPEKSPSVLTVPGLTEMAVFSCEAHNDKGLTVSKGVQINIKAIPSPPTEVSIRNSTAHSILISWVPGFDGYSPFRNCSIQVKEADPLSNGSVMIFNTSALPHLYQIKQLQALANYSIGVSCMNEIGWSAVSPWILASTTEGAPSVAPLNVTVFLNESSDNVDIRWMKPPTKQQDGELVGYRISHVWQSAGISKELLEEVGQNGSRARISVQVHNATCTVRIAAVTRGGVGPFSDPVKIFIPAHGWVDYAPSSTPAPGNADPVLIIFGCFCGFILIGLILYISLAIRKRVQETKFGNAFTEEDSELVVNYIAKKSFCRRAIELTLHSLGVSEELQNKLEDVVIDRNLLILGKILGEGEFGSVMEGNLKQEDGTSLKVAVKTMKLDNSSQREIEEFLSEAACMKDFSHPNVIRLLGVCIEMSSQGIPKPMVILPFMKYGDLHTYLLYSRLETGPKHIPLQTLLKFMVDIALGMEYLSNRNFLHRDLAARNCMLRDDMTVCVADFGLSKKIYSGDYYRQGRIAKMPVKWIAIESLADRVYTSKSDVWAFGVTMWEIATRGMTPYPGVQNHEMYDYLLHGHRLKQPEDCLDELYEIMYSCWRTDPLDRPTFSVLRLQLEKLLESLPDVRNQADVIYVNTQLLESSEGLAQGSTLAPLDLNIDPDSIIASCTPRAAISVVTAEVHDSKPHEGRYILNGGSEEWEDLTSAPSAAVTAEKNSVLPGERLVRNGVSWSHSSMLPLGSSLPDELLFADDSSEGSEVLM
Description: as §1, §2, §3

Row | Compound | Ki (FLT3) | Ki (MERTK)
1 | C#Cc1cc2c(N[C@H]3CC[C@H](N)CC3)c(C(=O)Nc3ccc(F)cc3)cnc2[nH]1 [Compound 128, [4-1(4-aminocyclohexyl)amino]-2-ethynyl-N-(4-fluorophenyl)-1H-pyrrolo[2,3-b]pyridine-5-carboxamide] | < 100 nM | 100 to 1000 nM
2 | CC(C)c1cc2c(N[C@H]3CC[C@H](N)CC3)c(C(=O)NCc3ccc(-n4ccnc4)cc3)cnc2[nH]1 [Compound 129] | < 100 nM | < 100 nM
3 | N[C@H]1CC[C@H](Nc2c(C(=O)Nc3ccc(F)cc3)cnc3[nH]c(C(F)(F)F)cc23)CC1 [Compound 135, 4-(((1r,4r)-4-aminocyclohexyl)amino)-N-(4-fluorophenyl)-2-(trifluoromethyl)-1H-pyrrolo[2,3-b]pyridine-5-carboxamide hydrochloride] | 100 to 1000 nM | < 100 nM
4 | N[C@H]1CC[C@H](Nc2c(C(=O)Nc3ccc(F)cc3)cnc3[nH]c(C4CCC4)cc23)CC1 [Compound 138, 4-(((1r,4r)-4-aminocyclohexyl)amino)-2-cyclobutyl-N-(4-fluorophenyl)-1H-pyrrolo[2,3-b]pyridine-5-carboxamide hydrochloride] | < 100 nM | < 100 nM
5 | CC(O)c1cc2c(N[C@H]3CC[C@H](O)CC3)c(-c3ccc(CN4CCOCC4)cn3)cnc2[nH]1 (some centres unmarked) [Compound 143] | < 100 nM | < 100 nM
6 | CCc1cc2c(N[C@H]3CC[C@H](O)CC3)c(-c3ccc(CN4CCOCC4)cn3)cnc2[nH]1 [Compound 144] | < 100 nM | < 100 nM
7 | COC(C)c1cc2c(N[C@H]3CC[C@H](N)CC3)c(C(=O)Nc3ccc(F)cc3)cnc2[nH]1 (some centres unmarked) [Compound 145] | 1000 to 10000 nM | 100 to 1000 nM
8 | CCC(OC)c1cc2c(N[C@H]3CC[C@H](N)CC3)c(C(=O)Nc3ccc(F)cc3)cnc2[nH]1 (some centres unmarked) [Compound 146] | 1000 to 10000 nM | 100 to 1000 nM
9 | CC(O)c1cc2c(N[C@H]3CC[C@H](N)CC3)c(C(=O)Nc3ccc(F)cc3)cnc2[nH]1 (some centres unmarked) [Compound 148] | 100 to 1000 nM | 100 to 1000 nM
10 | CCOC(C)c1cc2c(N[C@H]3CC[C@H](N)CC3)c(C(=O)Nc3ccc(F)cc3)cnc2[nH]1 (some centres unmarked) [Compound 152] | > 10000 nM | 100 to 1000 nM
11 | COCC(C)c1cc2c(N[C@H]3CC[C@H](N)CC3)c(C(=O)Nc3ccc(F)cc3)cnc2[nH]1 (some centres unmarked) [Compound 155] | 1000 to 10000 nM | 100 to 1000 nM
12 | CCC(C)c1cc2c(N[C@H]3CC[C@H](O)CC3)c(C(=O)NC3CCN(c4ncccn4)CC3)cnc2[nH]1 (some centres unmarked) [Compound 157] | > 10000 nM | 1000 to 10000 nM
13 | CCC(C)c1cc2c(N[C@H]3CC[C@H](O)CC3)c(C(=O)NC3CCN(C4=NCCCN4)CC3)cnc2[nH]1 (some centres unmarked) [Compound 158] | 100 to 1000 nM | < 100 nM
14 | CCC(C)c1cc2c(N[C@H]3CC[C@H](O)CC3)c(-c3ccc(S(=O)(=O)N4CCOCC4)cn3)cnc2[nH]1 (some centres unmarked) [Compound 159] | > 10000 nM | 1000 to 10000 nM

The remaining lines, values ahead:

Row | Ki (FLT3) | Ki (MERTK) | Compound
15 | < 100 nM | < 100 nM | CCCc1cc2c(N[C@H]3CC[C@H](N)CC3)c(-c3ccc(COC(C)C)cn3)cnc2[nH]1 [Compound 130]
16 | < 100 nM | 100 to 1000 nM | CCCc1cc2c(N[C@H]3CC[C@H](N)CC3)c(-c3cc(N)ccn3)cnc2[nH]1 [Compound 131]
17 | < 100 nM | < 100 nM | CCc1cc2c(N[C@H]3CC[C@H](N)CC3)c(C(=O)NC3CCN(c4ncccn4)CC3)cnc2[nH]1 [Compound 132]
18 | 100 to 1000 nM | < 100 nM | CCCCCc1cc2c(N[C@H]3CC[C@H](N)CC3)c(C(=O)NCc3ccc(-n4ccnc4)cc3)cnc2[nH]1 [Compound 133]
19 | 100 to 1000 nM | < 100 nM | CCC(C)c1cc2c(N[C@H]3CC[C@H](N)CC3)c(C(=O)Nc3ccc(F)cc3)cnc2[nH]1 (some centres unmarked) [Compound 134]
20 | < 100 nM | < 100 nM | CCc1cc2c(N[C@H]3CC[C@H](N)CC3)c(C(=O)Nc3ccc(F)cc3)cnc2[nH]1 [Compound 136]
21 | 1000 to 10000 nM | 100 to 1000 nM | CCCC(O)c1cc2c(N[C@H]3CC[C@H](N)CC3)c(Br)cnc2[nH]1 (some centres unmarked) [Compound 137]
22 | < 100 nM | < 100 nM | CCCc1cc2c(N[C@H]3CC[C@H](N)CC3)c(C(=O)NC)cnc2[nH]1 [Compound 139]
23 | < 100 nM | < 100 nM | CCCc1cc2c(N[C@H]3CC[C@H](N)CC3)c(C(=O)OC)cnc2[nH]1 [Compound 140]
24 | 100 to 1000 nM | < 100 nM | CCCc1cc2c(N[C@H]3CC[C@H](N)CC3)c(C(=O)NC3CCN(c4ncccn4)CC3)cnc2[nH]1 [Compound 141]
25 | 100 to 1000 nM | < 100 nM | CCCc1cc2c(N[C@H]3CC[C@H](N)CC3)c(Br)cnc2[nH]1 [Compound 142]
26 | 1000 to 10000 nM | 100 to 1000 nM | CCC(CC)c1cc2c(N[C@H]3CC[C@H](N)CC3)c(C(=O)Nc3ccc(F)cc3)cnc2[nH]1 [Compound 147]
27 | 1000 to 10000 nM | 100 to 1000 nM | CCC[C@H](C)c1cc2c(N[C@H]3CC[C@H](N)CC3)c(C(=O)Nc3ccc(F)cc3)cnc2[nH]1 [Compound 149]
28 | 1000 to 10000 nM | < 100 nM | CCC[C@@H](C)c1cc2c(N[C@H]3CC[C@H](N)CC3)c(C(=O)Nc3ccc(F)cc3)cnc2[nH]1 [Compound 150]
29 | > 10000 nM | 1000 to 10000 nM | CCCC(OC)c1cc2c(N[C@H]3CC[C@H](N)CC3)c(C(=O)Nc3ccc(F)cc3)cnc2[nH]1 (some centres unmarked) [Compound 153]
30 | > 10000 nM | 1000 to 10000 nM | CCCC(O)c1cc2c(N[C@H]3CC[C@H](N)CC3)c(C(=O)Nc3ccc(F)cc3)cnc2[nH]1 (some centres unmarked) [Compound 154]
31 | 100 to 1000 nM | < 100 nM | CC[C@H](C)c1cc2c(N[C@H]3CC[C@H](N)CC3)c(C(=O)Nc3ccc(F)cc3)cnc2[nH]1 [Compound 156]
